For assay [1], the target named is KRAS-G2D/SOS1 (Homo sapiens, UniProt P01116, G12D). Description: KRAS-G2D/SOS1 binding experiment (HTRF). As to conditions: His-tagged G12D protein and Tag1-SOS protein, room temperature. As for the experimental part: • A) Dilute Tagged-His Tag G12D protein and Tag1-SOS protein with diluent at 1:100, and use detection buffer for anti-Tag1-Tb3+ antibody and anti-Tag2-XL665 at 1:100 or 1:25, respectively Dilute. • B) Dilute the compound to be tested with diluent starting from […] concentration, 4 times gradient, a total of 6 concentration gradients, and dilute to 10× stock solution. • C) In a 96-well plate, add 4 uL Tagged-His Tag G12D protein, 4 uL Tag1-SOS protein, 2 ul dilution solution (positive control) or test compound (different concentrations of 10× stock solution) to each well in sequence, a total of 10 ul, and incubate at room temperature for […], add pre-mixed 5 uL anti-Tag1-Tb3+ and 5 uL anti-Tag2-xL665, seal the plate, incubate at room temperature for 2 hours, and read the HTRF signal with a TECAN INFINITEF NANO+ microplate reader.
Sequence of KRAS-G2D/SOS1 (P01116 1-188 isoform P01116-2 G12D): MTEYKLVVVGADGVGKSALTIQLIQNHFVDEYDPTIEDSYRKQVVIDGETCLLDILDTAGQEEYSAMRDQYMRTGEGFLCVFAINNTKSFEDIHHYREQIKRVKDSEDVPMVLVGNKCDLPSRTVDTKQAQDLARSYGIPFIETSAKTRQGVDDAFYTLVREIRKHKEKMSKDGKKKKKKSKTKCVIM
The ratio of […] and donor excitation signals for each single well was calculated using the formula ratio=665 nm signal value/620 nm signal value×[…]. Data were processed using Graphpadprism5 software. IC50 values were calculated by sigmoidal dose-response curve fitting.
(Time-resolved FRET reads energy transfer from a long-lived donor to a nearby acceptor.)

For assay [2], the system named is ATCC CRL-1739 (KRASG^12D mutant) cells. Description: Tumor cell proliferation inhibition experiment (Cell Titer-Glo, 72 hours). The class given is cell-based. As to conditions: 72 hours incubation, 10% fetal bovine serum, ATP content. The protocol: The ATCC CRL-1739 (KRASG^12D mutant) cells were digested, centrifuged and resuspended, and the cell density was measured with a Scepter automatic cell counter. The cells were diluted to a solution containing 44,000 cells per milliliter, and the density-adjusted cell solution was 90 per well. Microliters were added to a 96-well culture plate. The 96-well plate was placed in a 37° C., 5% CO2 incubator. After the cells were cultured for 24 hours, different concentrations of the compounds to be tested were added. The cells were incubated with the compounds for 72 hours in the presence of 10% fetal bovine serum. Glo Luminescent Cell Viability Assay Kit (see manufacturer's instructions for details) was used to measure ATP content to assess cell growth inhibition. Briefly, 30 μl of Cell Titer-Glo reagent was added to each well, and the plate was shaken for 10 minutes to induce cell lysis. FluoroskanAscentFL (Thermo) assay records the […], and the maximum signal value is obtained from cells treated with DMSO for 72 hours. The minimum signal value was obtained from the medium alone (the number of cells was zero), and the % inhibition rate=(the maximum signal value compound signal value)/(the maximum signal value−the minimum signal value×100%, and the data were processed using Graphpadprism 5 software. By sigmoid Dose-response curve fitting to calculate IC50 value. “A” means IC50≤50 nM; “B” means 50<IC50≤500 nM; “C” means 500<IC50≤2000 nM; “D” means 2000<IC50

For the compound `C#Cc1c(F)ccc2cc(O)cc(-c3nc4nc(OC[C@@]56CCCN5C[C@H](F)C6)nc(N5C[C@H]6CC[C@@H](C5)N6)c4cc3F)c12` [Compound 58, 4-(4-((1R,5S)-3,8-diazabicyclo[3.2.1]octan-3-yl)-6-fluoro-2-(((2R,7aS)-2-fluorotetrahydro-1H-pyrrolizin-7a(5H)-yl)methoxy)pyrido[2,3-d]pyrimidin-7-yl)-5-ethynyl-6-fluoronaphthalen-2-ol], the 50% inhibitory concentration (IC50) in assay [1] and in assay [2] was not above 50 nM each time.

Values taken from patent US20240190871A1, “KRASG12D INHIBITOR, PREPARATION METHOD THEREFOR AND APPLICATION THEREOF” (YA THERAPEUTICS INC, priority 2021, published 2024).
